Literature values, collected in article PMC8018653, “Gender-based differences in brain and plasma pharmacokinetics of letrozole in sprague-dawley rats: Application of physiologically-based pharmacokinetic modeling to gain quantitative insights” (PLoS ONE, 2021).

Test system: P-glycoprotein (P-gp)
Conditions: cited from earlier work

## CC(C)(C#N)c1cc(Cn2cncn2)cc(C(C)(C)C#N)c1 [anastrozole]
  substrate for the efflux transporter P-glycoprotein (P-gp): substrate
